#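 Each compound was tested at five concentrations against cells in 96-well plates for 48 hours. Definition used: TGI = concentration required for complete inhibition of growth.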
# How the values were obtained:
# Assay in all cases: growth of human tumour cells (NCI), 48 h
# [1] = system: 786-0 renal
# [2] = system: A498 renal
# [3] = system: A549 NSCLC
# [4] = system: ACHN renal
# [5] = system: BT-549 breast
# [6] = system: CAKI-1 renal
# [7] = system: CCRF-CEM leukemia
# [8] = system: COLO 205 colon
# [9] = system: DU-145 prostate
# [10] = system: EKVX NSCLC
# [11] = system: HCC-2998 colon
# [12] = system: HCT-116 colon
# [13] = system: HCT-15 colon
# [14] = system: HOP-62 NSCLC
# [15] = system: HOP-92 NSCLC
# [16] = system: HT29 colon
# [17] = system: IGROV1 ovarian
# [18] = system: K-562 leukemia
# [19] = system: KM12 colon
# [20] = system: LOX IMVI melanoma
# [21] = system: M14 melanoma
# [22] = system: MALME-3M melanoma
# [23] = system: MCF7 breast
# [24] = system: MDA-MB-231 breast
# [25] = system: MDA-MB-435
# [26] = system: MDA-N
# [27] = system: MOLT-4 leukemia
# [28] = system: NCI-H226 lung
# [29] = system: NCI-H23 lung
# [30] = system: NCI-H460 lung
# [31] = system: NCI-H522 lung
# [32] = system: NCI/ADR-RES ovarian
# [33] = system: OVCAR-3 ovarian
# [34] = system: OVCAR-4 ovarian
# [35] = system: OVCAR-5 ovarian
# [36] = system: OVCAR-8 ovarian
# [37] = system: PC-3 prostate
# [38] = system: RPMI-8226 leukemia
# [39] = system: SF-268 CNS
# [40] = system: SF-295 CNS
# [41] = system: SF-539 CNS
# [42] = system: SK-MEL-2 melanoma
# [43] = system: SK-MEL-28 melanoma
# [44] = system: SK-MEL-5 melanoma
# [45] = system: SK-OV-3 ovarian
# [46] = system: SN12C renal
# [47] = system: SNB-19 CNS
# [48] = system: SNB-75 CNS
# [49] = system: SR leukemia
# [50] = system: SW-620 colon
# [51] = system: TK-10 renal
# [52] = system: U251 CNS
# [53] = system: UACC-257 melanoma
# [54] = system: UACC-62 melanoma
# [55] = system: UO-31 renal
compound,measurement,setting,value
CN(C)CCNC(=O)c1cccc2c(NC(CCC(N)=O)C(=O)O)c3ccccc3nc12 (stereo not given),TGI,[1],> 100 µM
same,TGI,[2],37.2 µM
same,TGI,[3],64.6 µM
same,TGI,[4],18.8 µM
same,TGI,[5],33.4 µM
same,TGI,[6],> 100 µM
same,TGI,[7],> 100 µM
same,TGI,[8],19.8 µM
same,TGI,[9],> 100 µM
same,TGI,[10],53.3 µM
same,TGI,[11],55.6 µM
same,TGI,[12],> 100 µM
same,TGI,[13],22.5 µM
same,TGI,[14],47.8 µM
same,TGI,[15],> 100 µM
same,TGI,[16],41.7 µM
same,TGI,[17],36.6 µM
same,TGI,[18],> 100 µM
same,TGI,[19],59.1 µM
same,TGI,[20],35.6 µM
same,TGI,[21],27.5 µM
same,TGI,[22],19.5 µM
same,TGI,[23],51.3 µM
same,TGI,[24],24.7 µM
same,TGI,[25],23.1 µM
same,TGI,[26],31.4 µM
same,TGI,[27],71.3 µM
same,TGI,[28],46.6 µM
same,TGI,[29],18.4 µM
same,TGI,[30],54.9 µM
same,TGI,[31],22.3 µM
same,TGI,[32],> 100 µM
same,TGI,[33],> 100 µM
same,TGI,[34],60.6 µM
same,TGI,[35],> 100 µM
same,TGI,[36],> 100 µM
same,TGI,[37],23.5 µM
same,TGI,[38],> 100 µM
same,TGI,[39],28.3 µM
same,TGI,[40],25.5 µM
same,TGI,[41],21.7 µM
same,TGI,[42],25.4 µM
same,TGI,[43],38.1 µM
same,TGI,[44],31.4 µM
same,TGI,[45],54.9 µM
same,TGI,[46],81 µM
same,TGI,[47],15.5 µM
same,TGI,[48],30.8 µM
same,TGI,[49],> 100 µM
same,TGI,[50],> 100 µM
same,TGI,[51],> 100 µM
same,TGI,[52],> 100 µM
same,TGI,[53],> 100 µM
same,TGI,[54],> 100 µM
same,TGI,[55],7.15 µM

# Reference: PubChem BioAssay (NCI)
